Assay results from patent US10597388B2, “Pyridazinone herbicides” (FMC CORPORATION, priority 2014, dated 2020).

Legend:
Assay type in all cases: in vivo
[1] = system: blackgrass (Alopecurus myosuroides); experiment: Test A greenhouse herbicide test, postemergence
How it was run: (§1)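 Pot-grown plants (loam soil/sand blend), 2–10 cm tall at the one- to two-leaf stage, received postemergence sprays of formulated test chemical. After about 10 d in the greenhouse, injury was rated visually against untreated controls on a 0 (no effect) to 100 (complete control) scale.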

[2] = system: galium (catchweed bedstraw, Galium aparine); experiment: Test A greenhouse herbicide test, postemergence
How it was run: as §1

[3] = system: ragweed (common ragweed, Ambrosia elatior); experiment: Test A greenhouse herbicide test, pre- and postemergence
Source text: (§2) Seeds of plant species selected from barnyardgrass (Echinochloa crus-galli), kochia (Kochia scoparia), ragweed (common ragweed, Ambrosia elatior), ryegrass, Italian (Italian ryegrass, Lolium multiflorum), crabgrass, large (large crabgrass, Digitaria sanguinalis), foxtail, giant (giant foxtail, Setaria faberii), momingglory (Ipomoea spp.), pigweed (Amaranthus retroflexus), velvetleaf (Abutilon theophrasti), wheat (Triticum aestivum), and corn (Zea mays) were planted into a blend of loam soil and sand and treated preemergence with a directed soil spray using test chemicals formulated in a non-phytotoxic solvent mixture which included a surfactant.
(§3) At the same time, plants selected from these crop and weed species and also blackgrass (Alopecurus myosuroides), and galium (catchweed bedstraw, Galium aparine) were planted in pots containing the same blend of loam soil and sand and treated with postemergence applications of test chemicals formulated in the same manner. Plants ranged in height from 2 to 10 cm and were in the one- to two-leaf stage for the postemergence treatment. Treated plants and untreated controls were maintained in a greenhouse for approximately 10 d, after which time all treated plants were compared to untreated controls and visually evaluated for injury. Plant response ratings, summarized in Table A, are based on a 0 to 100 scale where 0 is no effect and 100 is complete control. A dash (-) response means no test result.

[4] = system: foxtail, giant (giant foxtail, Setaria faberii); experiment: as above
Source text: as §2, §3

[5] = system: corn (Zea mays); experiment: as above; details: Postemergence
Source text: as §2, §3

[6] = system: wheat (Triticum aestivum); experiment: as above; details: Postemergence
Source text: as §2, §3

[7] = system: kochia (Kochia scoparia); experiment: as above
Source text: as §2, §3

[8] = system: pigweed (Amaranthus retroflexus); experiment: as above
Source text: as §2, §3

[9] = system: barnyardgrass (Echinochloa crus-galli); experiment: as above
Source text: as §2, §3

[10] = system: ryegrass, Italian (Italian ryegrass, Lolium multiflorum); experiment: as above
Source text: as §2, §3

[11] = system: rice (Oryza sativa); experiment: Test B flooded paddy test; details: 250 g ai/ha, Flood; visual rating on scale of 0 to 100 where 0 is no effect and 100 is complete control; 13 to 15 d after treatment
How it was run: (§4)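 Plants grown to the 2-leaf stage. At treatment, pots were flooded to 3 cm above the soil, compound was applied directly to the paddy water, and that depth was held throughout. After 13 to 15 d in the greenhouse, response was rated visually against controls on a 0 (no effect) to 100 (complete control) scale.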

[12] = system: ducksalad (Heteranthera limosa); experiment: Test B flooded paddy test; details: 250 g ai/ha, Flood; visual rating on scale of 0 to 100 where 0 is no effect and 100 is complete control; 13 to 15 d after treatment
How it was run: as §4

[13] = system: barnyardgrass (Echinochloa crus-galli); experiment: Test B flooded paddy test; details: 250 g ai/ha, Flood; visual rating on scale of 0 to 100 where 0 is no effect and 100 is complete control; 13 to 15 d after treatment
How it was run: as §4

[14] = system: sedge, umbrella (small-flower umbrella sedge, Cyperus difformis); experiment: Test B flooded paddy test; details: 250 g ai/ha, Flood; visual rating on scale of 0 to 100 where 0 is no effect and 100 is complete control; 13 to 15 d after treatment
How it was run: as §4

[15] = 125 g ai/ha, 0 to 100 scale where 0 is no effect and 100 is complete control
[16] = 500 g ai/ha, visual rating after approx. 10 d, 0 to 100 scale (0 no effect, 100 complete control)
[17] = Postemergence, 125 g ai/ha, 0 to 100 scale where 0 is no effect and 100 is complete control
[18] = Postemergence, 500 g ai/ha, visual rating after approx. 10 d, 0 to 100 scale (0 no effect, 100 complete control)
[19] = Preemergence, 125 g ai/ha, 0 to 100 scale where 0 is no effect and 100 is complete control
[20] = Preemergence, 500 g ai/ha, 0 to 100 scale where 0 is no effect and 100 is complete control

Structure (SMILES): CCc1ccc2ccc(C)cc2c1-c1c(O)c(C)nn(C)c1=O [Compound 103]
- Plant response rating, Blackgrass [1, 15]: 70
- Blackgrass plant response rating ([1]; 500 g ai/ha, 0 to 100 scale, 0 is no effect, 100 is complete control): 90
- Plant response rating, Galium [2, 15]: 100
- Plant response rating, Galium [2, 16]: 100
- Plant response rating, Ragweed [3, 17]: 100
- Plant response rating, Ragweed [3, 18]: 100
- Ragweed plant response rating [3, 19]: 90
- Plant response rating, Ragweed [3, 20]: 100
- Plant response rating, Foxtail, Giant [4, 17]: 90
- Plant response rating, Foxtail, Giant [4, 18]: 90
- Foxtail, Giant plant response rating [4, 19]: 80
- Plant response rating, Foxtail, Giant [4, 20]: 100
- Plant response rating, Corn [5, 15]: 20
- Plant response rating, Corn [5, 16]: 60
- Plant response rating, Wheat [6, 15]: 0
- Plant response rating, Wheat [6, 16]: 20
- Plant response rating, Kochia [7, 17]: 50
- Plant response rating, Kochia [7, 18]: 90
- Kochia plant response rating [7, 19]: 20
- Plant response rating, Kochia [7, 20]: 40
- Plant response rating, Pigweed [8, 17]: 90
- Plant response rating, Pigweed [8, 18]: 100
- Pigweed plant response rating [8, 19]: 100
- Plant response rating, Pigweed [8, 20]: 100
- Plant response rating, Barnyardgrass [9, 17]: 40
- Barnyardgrass plant response rating ([9]; Postemergence, 500 g ai/ha, 0 to 100 scale, 0 is no effect, 100 is complete control): 90
- Barnyardgrass plant response rating [9, 19]: 40
- Plant response rating, Barnyardgrass [9, 20]: 90
- Plant response rating, Ryegrass, Italian [10, 17]: 100
- Plant response rating, Ryegrass, Italian [10, 18]: 100
- Ryegrass, Italian plant response rating [10, 19]: 90
- Plant response rating, Ryegrass, Italian [10, 20]: 100
- Plant response rating, Rice [11]: 0
- Plant response rating, Ducksalad [12]: 0
- Plant response rating, Barnyardgrass [13]: 30
- Plant response rating, Sedge, Umbrella [14]: 50

Structure (SMILES): CCc1nn(C)c(=O)c(-c2c(C)oc3ccccc23)c1O [Compound 117]
- Plant response rating, Blackgrass [1, 15]: 0
- Plant response rating, Blackgrass [1, 16]: 0
- Plant response rating, Galium [2, 15]: 0
- Plant response rating, Galium [2, 16]: 0
- Plant response rating, Ragweed [3, 17]: 0
- Plant response rating, Ragweed [3, 18]: 0
- Ragweed plant response rating [3, 19]: 0
- Plant response rating, Ragweed [3, 20]: 0
- Plant response rating, Foxtail, Giant [4, 17]: 0
- Plant response rating, Foxtail, Giant [4, 18]: 20
- Foxtail, Giant plant response rating [4, 19]: 0
- Plant response rating, Foxtail, Giant [4, 20]: 30
- Plant response rating, Corn [5, 15]: 0
- Plant response rating, Corn [5, 16]: 0
- Plant response rating, Wheat [6, 15]: 0
- Plant response rating, Wheat [6, 16]: 0
- Plant response rating, Kochia [7, 17]: 0
- Plant response rating, Kochia [7, 18]: 10
- Kochia plant response rating [7, 19]: 0
- Plant response rating, Kochia [7, 20]: 0
- Plant response rating, Pigweed [8, 17]: 0
- Plant response rating, Pigweed [8, 18]: 20
- Pigweed plant response rating [8, 19]: 0
- Plant response rating, Pigweed [8, 20]: 30
- Plant response rating, Barnyardgrass [9, 17]: 0
- Plant response rating, Barnyardgrass [9, 18]: 40
- Barnyardgrass plant response rating [9, 19]: 0
- Plant response rating, Barnyardgrass [9, 20]: 50
- Plant response rating, Ryegrass, Italian [10, 17]: 0
- Plant response rating, Ryegrass, Italian [10, 18]: 0
- Ryegrass, Italian plant response rating [10, 19]: 0
- Plant response rating, Ryegrass, Italian [10, 20]: 0
- Plant response rating, Rice [11]: 0
- Plant response rating, Ducksalad [12]: 0
- Plant response rating, Barnyardgrass [13]: 0
- Plant response rating, Sedge, Umbrella [14]: 0

Structure (SMILES): CC(=O)Oc1ccc2cccc(-c3c(OC(C)=O)c(C)nn(C)c3=O)c2c1 [Compound 124]
- Plant response rating, Blackgrass [1, 15]: 0
- Plant response rating, Blackgrass [1, 16]: 0
- Plant response rating, Galium [2, 15]: 0
- Plant response rating, Galium [2, 16]: 30
- Plant response rating, Ragweed [3, 17]: 0
- Plant response rating, Ragweed [3, 18]: 0
- Ragweed plant response rating [3, 19]: 0
- Plant response rating, Ragweed [3, 20]: 0
- Plant response rating, Foxtail, Giant [4, 17]: 0
- Plant response rating, Foxtail, Giant [4, 18]: 0
- Foxtail, Giant plant response rating [4, 19]: 0
- Plant response rating, Foxtail, Giant [4, 20]: 0
- Plant response rating, Corn [5, 15]: 0
- Plant response rating, Corn [5, 16]: 0
- Plant response rating, Wheat [6, 15]: 0
- Plant response rating, Wheat [6, 16]: 0
- Plant response rating, Kochia [7, 17]: 0
- Plant response rating, Kochia [7, 18]: 0
- Kochia plant response rating [7, 19]: 0
- Plant response rating, Kochia [7, 20]: 20
- Plant response rating, Pigweed [8, 17]: 0
- Plant response rating, Pigweed [8, 18]: 0
- Pigweed plant response rating [8, 19]: 0
- Plant response rating, Pigweed [8, 20]: 0
- Plant response rating, Barnyardgrass [9, 17]: 20
- Plant response rating, Barnyardgrass [9, 18]: 30
- Barnyardgrass plant response rating [9, 19]: 0
- Plant response rating, Barnyardgrass [9, 20]: 0
- Plant response rating, Ryegrass, Italian [10, 17]: 0
- Plant response rating, Ryegrass, Italian [10, 18]: 0
- Ryegrass, Italian plant response rating [10, 19]: 0
- Plant response rating, Ryegrass, Italian [10, 20]: 30
- Plant response rating, Rice [11]: 0
- Plant response rating, Ducksalad [12]: 0
- Plant response rating, Barnyardgrass [13]: 0
- Plant response rating, Sedge, Umbrella [14]: 0
